This is an account of results in US10285994B2, “Method of preventing or treating osteoporosis by neddylation inhibitor” (Chang Gung University, priority 2017, dated 2019).

The subject of assay [1] is P38 (pP38). Description: Western blot, sRANKL-induced P38 phosphorylation in RAW264.7 cells. The format is cell-based, mouse. As to conditions: RAW264.7, 30 min pre-treatment, sRANKL 50 ng/ml, FIG. 3A-3B. As to the method: FIGS. 3A-3D are data collected from Western blot analysis that respectively depict the expression of specified protein extracted from the RAW264.7 cells, which are pre-treated with specified concentrations of MLN4924 for 30 minutes followed by the stimulation of sRANKL (50 ng/ml) according to example 2 of the present disclosure. FIG. 3A: the time course effect of MLN4924 on the phosphorylations of ERK (pERK), P38 (pP38) and JNK (pJNK). FIG. 3B: the dose effect of MLN4924 on the phosphorylations of ERK (pERK), P38 (pP38) and JNK (pJNK). FIG. 3C: the time course effect of MLN4924 on the expression of NFATc-1. FIG. 3D: the dose effect of MLN4924 on the expression of NFATc-1. Mock: untreated control; R: sRANKL; M: MLN4924.
The RAW264.7 cells were starved with serum-free medium for six hours and then treated with the specified treatments. At indicated time points, the cells were washed with cold phosphate-buffered saline (PBS) and lysed in RIPA buffer containing complete protease inhibitor cocktail (Roche). The cell lysates were separated by SDS-PAGE followed by Western blotting with the indicated antibodies, including NEDD8, APPBP1, UBA3.
Specifically, the inhibitory effect increased with an increase in the MLN4924 concentration (FIG. 3B).

Assay [2] concerns RAW264.7 cells. Nature of the assay: Pit assay on Corning Osteo Surface, RAW264.7-derived osteoclasts. The format is cell-based, mouse. As to conditions: sRANKL-activated RAW264.7 cells, 7 days, FIG. 2B. As to the method:
FIGS. 2A-2D are data collected from RAW264.7 cells respectively incubated in the medium containing sRANKL (50 ng/ml) and specified concentrations of MLN4924 for 7 days according to example 1.2 of the present disclosure. FIG. 2A: the photographs of TRAP staining depicting the differentiation of osteoclasts from RAW264.7 cells. FIG. 2B: after the differentiation of osteoclasts in Corning Osteo Surface, the cells were removed, and the resorbed areas for confirming osteoclast activity were analyzed by 1% toluidine blue staining. FIG. 2C: the culture medium is subject to Biovision Cathepsin K Activity Fluorometric Assay Kit for the analysis of cathepsin K activity. FIG. 2D: the effect of effective doses of MLN4924 on the viability of RAW264.7 cells is evaluated by MTT assay. Scale bar represents 100 μm. Data are expressed as mean±SD where *p<0.05.
The pre-osteoclasts and RAW264.7 cells were seeded into Corning Osteo Surface Assay 96-wells plate (Corning, Kennebunk, Me.). Twenty-four hours later, the cells were treated with sRANKL (50 ng/ml) and specified concentrations of MLN4924 for 7 days. The cells were then harvested so as to evaluate the cathepsin K activity by use of Biovision Cathepsin K Activity Fluorometric Assay Kit (Biovision, Milpitas, Calif.). The Corning Osteo surface was stained with 1% toluidine blue for 24 hours and washed with deionized water twice. […]

For the compound `NS(=O)(=O)OC[C@@H]1C[C@@H](n2ccc3c(N[C@H]4CCc5ccccc54)ncnc32)C[C@@H]1O` [MLN4924, (1S,2S,4R)-4-(4-((1S)-2,3-Dihydro-1H-inden-1-ylamino)-7H-pyrrolo(2,3-d)pyrimidin-7-yl)-2-hydroxycyclopentyl) methyl sulphamate], the “sRANKL-upregulated phosphorylation of P38 (pP38)” value in assay [1] is on record as “inhibited”. Besides, in assay [2], the “bone matrix resorption of osteoclasts” value was “significantly inhibited”.
